Measurements reported in patent US20050101595A1, “N-containing cycloalkyl-substituted amino-thiazole derivatives and pharmaceutical compositions for inhibiting cell proliferation and methods for their use” (PFIZER INC., priority 2003, published 2005).
Where a name gives a salt, the structure may show the parent alone. Read-outs that look alike come from different tables or passages of the source.

Key:
CDK2/Cyclin A = CDK2/Cyclin A (Homo sapiens, UniProt P24941); assay: Inhibition of CDK2/Cyclin A Retinoblastoma Kinase Activity; type: biochemical; conditions: for Ki: apparent Ki, CDK2/proteolyzed cyclin A, Rb fragment substrate, 25 μM ATP
In short: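 Percent inhibition is calculated against DMSO-only wells after subtracting no-enzyme background. The enzyme is human CDK2 complexed with proteolyzed cyclin A, used at 10 nM or 19 nM on an Rb fragment with 25 μM [32/33P]ATP, at pH 7.4 and 30° C.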

[1] = target: human CDK4 and genetically truncated (1-264) cyclin D3 (Homo sapiens, UniProt P11802); assay: Inhibition of CDK4/Cyclin D Retinoblastoma Kinase Activity; type: biochemical; conditions: for Ki: apparent Ki, CDK4/truncated cyclin D3, Rb fragment substrate, 25 μM ATP
In short: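 Apparent Ki values derive from fitting activity at varied inhibitor concentrations to a competitive (or competitive tight-binding) model. Kinase reactions used 5 nM CDK4/cyclin D3(1-264), Rb fragment substrate and 25 μM ATP. Incubation ran 20 min at 30 °C, extended to 60 min under linear conditions for tight binders.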

HCT-116 cell line = assay: Inhibition of cell growth, tetrazolium salt (MTT) assay; type: cell-based; conditions: for IC50: Homo sapiens, HCT-116, 120 h, MTT, three to five days, read-out: HCT-116 IC50; for HCT-116 % Inhibition at 0.25 μM: 0.25 μM compound
In short: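 HCT-116 cells in McCoy's 5A medium received compound 4 h after plating (0.5% v/v DMSO) and were incubated three to five days at 37° C, 5% CO2. MTT (0.2 mg/mL final) then added for 4 h; DMSO-solubilized formazan read at 540 nm against 0.5% DMSO-treated controls.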

[2] = 0.1 μM compound, HCT-116, Table 3

human CDK4 and genetically truncated (1-264) cyclin D3, sequence (P11802 whole entry, the tested form may be a part): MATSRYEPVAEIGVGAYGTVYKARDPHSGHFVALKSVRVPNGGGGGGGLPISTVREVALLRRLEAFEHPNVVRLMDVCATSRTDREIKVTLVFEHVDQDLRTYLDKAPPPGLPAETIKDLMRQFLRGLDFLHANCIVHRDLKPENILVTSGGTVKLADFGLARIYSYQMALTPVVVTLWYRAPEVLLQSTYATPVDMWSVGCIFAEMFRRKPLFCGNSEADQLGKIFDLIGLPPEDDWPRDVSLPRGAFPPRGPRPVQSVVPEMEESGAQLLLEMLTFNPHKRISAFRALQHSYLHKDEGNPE
human CDK4 and genetically truncated (1-264) cyclin D3, sequence (P30281 1-264 partner): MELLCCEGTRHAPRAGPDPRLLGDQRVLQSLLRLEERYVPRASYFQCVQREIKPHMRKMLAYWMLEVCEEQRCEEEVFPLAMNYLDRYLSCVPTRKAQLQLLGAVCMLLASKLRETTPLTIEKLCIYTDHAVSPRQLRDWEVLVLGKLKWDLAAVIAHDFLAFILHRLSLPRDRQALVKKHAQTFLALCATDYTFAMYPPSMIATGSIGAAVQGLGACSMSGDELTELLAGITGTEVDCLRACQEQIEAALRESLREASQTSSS

Row | Ki (CDK2/Cyclin A) | Ki [1] | IC50 (HCT-116 cell line; first HCT-116 column (c4)) | IC50 (HCT-116 cell line; second HCT-116 column (c5)) | SMILES | further results
1 |  |  |  |  | Cc1ccc(Oc2ncccc2C(=O)N2CCC(Nc3nc(N)c(C(=O)c4c(F)cccc4F)s3)CC2)cc1 [Example R45] | CDK2 % Inhibition at 0.03 μM (CDK2/Cyclin A; at 0.03 μM): 37%; CDK4 % Inhibition at 0.03 μM ([1]; at 0.03 μM): 49%; HCT-116 % Inhibition at 0.1 μM (HCT-116 cell line; HCT-116 cells, at 0.1 μM): 2%; HCT-116 5 Inhibition at 0.25 μM (HCT-116 cell line; HCT-116 cells, at 0.25 μM): 36
2 | 0.0013 µM | 0.0012 µM | 0.098 µM | 0.4 µM | Nc1nc(NC2CCN(S(=O)(=O)c3ccc(CN4CCOCC4)cc3)CC2)sc1C(=O)c1c(F)cccc1F [Example J8, 1-{4-Amino-2-[1-(4-morpholin4-ylmethyl-benzenzsulfonyl)-piperidin-4-ylamino]-thiazol-5-yl}-1-(2,6-difluoro-phenyl)-methanone Hydrochloride Salt] | 
3 | 0.0078 µM | 0.0028 µM | 1.8 µM | 5 µM | CN1CCN(CCCS(=O)(=O)N2CCC(Nc3nc(N)c(C(=O)c4c(F)cccc4F)s3)CC2)CC1 [Example K16, 1-(4-Amino-2-{1-[3-(4-methylpiperazin-1-yl)propane-1-sulfonyl]-piperidin-4-ylamino}-thiazol-5-yl)-1-(2,6-difluoro-phenyl)-methanone.] | 
4 | 0.002 µM | 0.0036 µM | 0.14 µM | 0.25 µM | N#Cc1ccccc1S(=O)(=O)N1CCC(Nc2nc(N)c(C(=O)c3c(F)cccc3F)s2)CC1 [Example F9, 2-{4-[4-Amino-5-(2,6-difluoro-benzoyl)-thiazol-2-ylamino]-piperidine-1-sulfonyl}-benzonitrile] | 
5 |  |  |  |  | COc1ccccc1NC(=O)N1CCC(Nc2nc(N)c(C(=O)c3c(F)cccc3F)s2)CC1 [Example O7] | CDK2 % Inhibition At 0.03 μM (CDK2/Cyclin A; 0.03 μM compound, Table 2): 40%; CDK4 % Inhibition at 0.03 μM ([1]; 0.03 μM compound, Table 2): 10%; HCT-116 % Inhibition at 0.25 μM (HCT-116 cell line; HCT-116, Table 2): 43%
6 | 0.0087 µM | 0.0025 µM | 1.3 µM | 5 µM | CCN1CCN(CCCS(=O)(=O)N2CCC(Nc3nc(N)c(C(=O)c4c(F)cccc4F)s3)CC2)CC1 [Example K15, 1-(4-Amino-2-{1-[3-(4-ethylpiperazin-1-yl)propane-1-sulfonyl]-piperidin-4-ylamino}-thiazol-5-yl)-1-(2,6-difluoro-phenyl)-methanone.] | 
7 |  |  |  |  | Nc1nc(NC2CCN(C(=O)c3ccncc3)CC2)sc1C(=O)c1c(F)cccc1F [Example Q81] | CDK2 % Inhibition at 0.03 μM (CDK2/Cyclin A; 0.03 μM compound, Table 4): 6%; CDK4 % Inhibition at 0.03 μM ([1]; 0.03 μM compound, Table 4): 19%; HCT-116 % Inhibition at 0.1 μM (HCT-116 cell line; 0.1 μM compound, HCT-116, Table 4): 4%; HCT-116 % Inhibition at 0.25 μM (HCT-116 cell line; HCT-116, Table 4): 37%
8 | 0.038 µM | 0.17 µM | > 5 µM | > 5 µM | CC(C)OC(=O)NS(=O)(=O)N1CCC(Nc2nc(N)c(C(=O)c3c(F)cccc3F)s2)CC1 [Example E5, [1-(4-{4-Amino-5-[1-(2,6-difluoro-phenyl)-methanoyl]-thiazol-2-ylamino}-piperidin-1-yl)-sulfonyl]-carbamic Acid Isopropyl Ester] | 
9 | 0.002 µM | 0.0029 µM | 0.21 µM | 1.7 µM | Nc1nc(NC2CCN(S(=O)(=O)CCCN3CCCCC3)CC2)sc1C(=O)c1c(F)cccc1F [Example K7, 1-(4-Amino-2-{1-[3-(piperidin-1-yl)propane-1-sulfonyl]-piperidin-4-ylamino}-thiazol-5-yl)-1-(2,6-difluoro-phenyl)-methanone.] | 
10 | 0.024 µM | 0.0018 µM | 1.3 µM | 5 µM | N#C/C(=C\c1cccc(O)c1)C(=O)N1CCC(Nc2nc(N)c(C(=O)c3c(F)cccc3F)s2)CC1 [Example D13, 12(Z)-(1-{4-[4-Amino-5-(2,6-difluoro-benzoyl)-thiazol-2-ylamino]-piperidin-1-yl}-methanoyl)-3-(3-hydroxy-phenyl)-acrylonitrile Trifluoroacetic Acid Salt] | 
11 |  |  |  |  | CS(=O)(=O)CS(=O)(=O)N1CCC(Nc2nc(N)c(C(=O)c3c(F)cccc3F)s2)CC1 [Example P53] | CDK2 % Inhibition at 0.03 μM (CDK2/Cyclin A; 0.03 μM compound, Table 3): −23%; CDK4 % Inhibition at 0.03 μM ([1]; 0.03 μM compound, Table 3): 16%; HCT-116 % Inhibition at 0.1 μM (HCT-116 cell line; [2]): 21%; HCT-116 % Inhibition at 0.25 μM (HCT-116 cell line; HCT-116, Table 3): 27%
12 |  |  |  |  | CN(C)c1cccc2c(S(=O)(=O)N3CCC(Nc4nc(N)c(C(=O)c5c(F)cccc5F)s4)CC3)cccc12 [Example P2] | CDK2 % Inhibition at 0.03 μM (CDK2/Cyclin A; 0.03 μM compound, Table 3): 43%; CDK4 % Inhibition at 0.03 μM ([1]; 0.03 μM compound, Table 3): 69%; HCT-116 % Inhibition at 0.1 μM (HCT-116 cell line; [2]): 15%; HCT-116 % Inhibition at 0.25 μM (HCT-116 cell line; HCT-116, Table 3): 24%
